In US10624278B2, “Cultivation method for the rapid propagation of Davidia involucrata winter buds” (Mianyang Teachers' College, priority 2017, dated 2020):

What was measured:
Assay type in all cases: in vivo
[1] = test system: Davidia involucrata saplings; test: cultivating the strong seedlings; set-up: unit not given here; details: for K1: mean average height at level 1 of the factor (GA3 0.5, NAA 0.5, 6-BA 0.2); for K2: mean average height at level 2 of the factor (GA3 1.0, NAA 1.0, 6-BA 0.6); for K3: mean average height at level 3 of the factor (GA3 1.5, NAA 1.5, 6-BA 1.0); for R: range of K values of the factor, average height
Experimental: inoculating the plurality of Davidia involucrata saplings obtained in step (4) in nine groups of WPM medium (See Table 8) containing different concentrations of NAA, 6-BA and GA3 at the temperature of 24±1° C. and illuminating for 10 hours per day at 2000 1× to cultivate the plurality of Davidia involucrata saplings obtained in step (4) for 36 days. The amount of AC added for each group of WPM medium is 1.0 g/L. Calculating the average height of the saplings (See Table 9).

[2] = test system: Davidia involucrata saplings; test: rooting cultivation (orthogonal experiment); set-up: unit not given here; details: for K1: mean rooting ratio at level 1 of the factor (¼MS, IBA 1.0, 6-BA 0, AC 0.5); for K2: mean rooting ratio at level 2 of the factor (WPM, IBA 2.0, 6-BA 1.0, AC 1.0); for K3: mean rooting ratio at level 3 of the factor (White, IBA 3.0, 6-BA 1.5, AC 1.5); for R: range of K values of the factor, rooting ratio
Experimental: inoculating the plurality of Davidia involucrata saplings in good condition obtained in step (5) in the White, WPM and 1/4 MS medium (See Table 10) containing different concentrations of IBA, 6-BA and AC at the temperature of 24±1° C. and illuminating for 10 hours per day at 2000 1× to cultivate the plurality of Davidia involucrata saplings in good condition obtained in step (5) until rooting. Analyzing the rooting results (See Table 11).

[3] = test system: Davidia involucrata winter buds; test: disinfecting and sterilizing of the winter buds
Experimental: disinfecting and sterilizing of the winter buds: immersing the plurality of winter buds collected in the field into a detergent solution with a concentration of […] for 2 minutes, gently cleaning the bud scales using a soft brush, rinsing for 2 hours with running water, and then immersing the winter buds using the 0.1% mercuric chloride solution for 20 minutes on a clean bench, rinsing with sterile water for more than 5 times, blotting up the water on the surface of the explants with sterile filter paper, stripping up all the scales of the winter buds using a tweezer to obtain the buds, treating with 75% ethanol and mercuric chloride solution or treating with mercuric chloride solution only. Wherein each treatment is inoculated into 30 bottles and 2 explants in each bottle. The specific progress is as follows: […]

[4] = Disposal 1: mercuric chloride only, treating time 4 min
[5] = Disposal 2: mercuric chloride only, treating time 5 min
[6] = Disposal 3: mercuric chloride only, treating time 6 min
[7] = Disposal 4: mercuric chloride only, treating time 7 min
[8] = Disposal 5: mercuric chloride only, treating time 8 min

| Structure (SMILES) | K1 [1] | K2 [1] | K3 [1] | R [1] | K1 [2] | K2 [2] | K3 [2] | R [2] | also measured |
| --- | --- | --- | --- | --- | --- | --- | --- | --- | --- |
| O=C(O)Cc1cccc2ccccc12 [NAA] | 1.537 | 2.067 | 1.810 | 0.530 | – | – | – | – | – |
| O=C(O)CCCc1c[nH]c2ccccc12 [IBA] | – | – | – | – | 55.663 | 62.337 | 55.397 | 6.940 | – |
| c1ccc(CNc2ncnc3[nH]cnc23)cc1 [6-BA] | 1.820 | 1.697 | 1.897 | 0.200 | 48.340 | 67.907 | 57.150 | 19.567 | – |
| C=C1C[C@]23C[C@@]1(O)CC[C@H]2[C@@]12C=C[C@H](O)[C@@](C)(C(=O)O1)[C@H]2[C@@H]3C(=O)O [GA3] | 1.663 | 2.037 | 1.713 | 0.374 | – | – | – | – | – |
| [Cl][Hg][Cl] [0.01% mercuric chloride solution, mercuric chloride] | – | – | – | – | – | – | – | – | Death rate (%) [3, 4]: 3%; Pollution rate (%) [3, 4]: 38%; Death rate (%) [3, 5]: 5%; Pollution rate (%) [3, 5]: 27.2%; Death rate (%) [3, 6]: 6%; Pollution rate (%) [3, 6]: 18%; Death rate (%) [3, 7]: 36%; Pollution rate (%) [3, 7]: 16%; Death rate (%) [3, 8]: 45%; Pollution rate (%) [3, 8]: 10% |
